Results reported in patent US4515727A, “Allene containing arachidonic acid derivatives” (SYNTEX (U.S.A.) Inc., priority 1982, dated 1985).

Legend:
Lipoxygenase = target: T1, Lipoxygenase (Homo sapiens, UniProt P09917); assay: Inhibition of lipoxygenase activity by human polymorphonuclear leukocytes (PMNs); format: cell-based; conditions: test compound 1×10^-4 m, 37° C., 5 minutes, arachidonic acid 1-C14 1×10^-4 M; for Percent Inhibition Lipoxygenese Act. 5-HETE: product 5-hydroxy-7,9,11,14-eicosatetraenoic acid; for Percent Inhibition Lipoxygenese Act. LTB4: product Leukotriene B4
T1 construct: The PMNs were prepared from 200-300 ml of heparinized blood of healthy donors; endogenous in cells; host or cells: human polymorphonuclear leukocytes from heparinized blood of healthy donors (intact cells)
T1 sequence (P09917 1-674): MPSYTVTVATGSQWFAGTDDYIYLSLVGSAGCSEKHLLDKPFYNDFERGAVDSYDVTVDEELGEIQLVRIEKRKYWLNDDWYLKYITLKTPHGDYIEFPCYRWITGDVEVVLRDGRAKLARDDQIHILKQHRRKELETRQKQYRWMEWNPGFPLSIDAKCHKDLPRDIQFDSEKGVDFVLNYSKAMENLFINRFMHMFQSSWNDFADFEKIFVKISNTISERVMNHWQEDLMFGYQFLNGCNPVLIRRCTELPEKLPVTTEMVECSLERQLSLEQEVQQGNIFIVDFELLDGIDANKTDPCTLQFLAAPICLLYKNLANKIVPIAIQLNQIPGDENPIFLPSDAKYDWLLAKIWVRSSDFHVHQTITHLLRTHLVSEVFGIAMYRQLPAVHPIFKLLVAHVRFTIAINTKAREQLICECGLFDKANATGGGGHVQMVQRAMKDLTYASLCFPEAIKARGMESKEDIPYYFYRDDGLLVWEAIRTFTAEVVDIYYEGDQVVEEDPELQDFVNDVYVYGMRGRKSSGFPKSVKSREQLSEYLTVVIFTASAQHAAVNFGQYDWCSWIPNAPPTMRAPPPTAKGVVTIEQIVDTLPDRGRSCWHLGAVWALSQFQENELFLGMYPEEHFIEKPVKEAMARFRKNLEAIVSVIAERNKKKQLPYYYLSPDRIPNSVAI
Protocol: (§1) Assay for Inhibition of Lipoxygenase Activity By Human Polymorphonuclear Leukocytes (PMNs)
(§2) 1. Preparation of the cells:
(§3) The PMNs were prepared from 200-300 ml of heparinized blood of healthy donors not receiving any medication for at least 7 days using Ficoll-Hypaque gradients. In general, PMNs were greater than 98% pure and their viability was assessed by dye-exclusion to be better than 95%. The cells were suspended in phosphate buffered saline containing 1.0 mM CaCl2 (PH 7.4) and 0.1 ovalbumin, and used within 30 minutes.
Incubations were carried out at 37° C. for 5 minutes in a total volume of 0.2 ml. Arachidonic acid 1-C^14 (1×10^-4 M unless otherwise indicated, and approximately 300,000 cpm) was added to a suspension of cells (ca 5×10^6) to initiate the reaction. Prior to the addition of above substrate, the test substances were added to the cells at appropriate concentrations and pre-incubated at 37° C. for 5 minutes. In general, stock solutions of test substances were prepared in ethanol (or other appropriate solvents) and diluted with either incubation buffer or water. […] Boiled enzyme blanks and controls containing no test compound were always included. The incubations were terminated by the addition of 0.6 ml of methanol, vortexed and kept on ice for 30 minutes. An internal standard (5-hydroxy-7,9,11,14-eicosatetraenoic acid methyl ester) and 1.6 ml of deionized water was added, vortexed, centrifuged, supernatants decanted and kept in the freezer overnight. Extraction and purification of the arachidonic acid and lipoxygenase products were carried out using "Baker" disposable C18 extraction columns (1 ml capacity). The columns were prewashed with methanol (2.0 ml) followed by deionized water (2 ml). After most of the solvent was removed, 2.0 ml of the supernatant was applied to the extraction column and the solvent was allowed to flow through. The column was then washed with 5 ml of deionized water and the eludate was discarded. The column was then eluted with 2.0 ml of methanol and the eludate was forced through by N2, collected and the solvent removed in a vacuum oven overnight. The residue was carefully dissolved in […] of the mobile phase (methanol 75:H2 O 25:acetic acid 0.01) and a 10 microliter aliquot counted to estimate the recoveries. An aliquot of an extract from a control tube was injected into a Waters μBondpack C-18 reverse phase column and the retention times of cycloxygenase and lipoxygenase products determined both by OD measurement at 244 nM and by collecting 1 min. fractions and determining radioactivity. Based on this information, programmed collection of fractions (total of 6) using a fraction collector was made with each of the extracts injected into the column by an autoinjector (WISP) and the fractions counted for radioactivity in a Packard Liquid Scintillation Spectrometer.
Using this procedure the following compounds were tested at a concentration of 1×10^-4 m and found to have the denoted lipoxygenase and cycloxygenase activity: […]

Cyclooxygenase = target: T2, Cyclooxygenase (Homo sapiens, UniProt P23219); assay: Inhibition of cyclooxygenase activity in the human PMN arachidonic acid incubation; format: cell-based; conditions: test compound 1×10^-4 m; human PMNs, 37° C., 5 minutes; arachidonic acid 1-C14 1×10^-4 M
T2 construct: The PMNs were prepared from 200-300 ml of heparinized blood of healthy donors; endogenous in cells; host or cells: human polymorphonuclear leukocytes from heparinized blood of healthy donors (intact cells, more than 98% pure)
Protocol: as §1, §2, §3
Incubations were carried out at 37° C. for 5 minutes in a total volume of 0.2 ml. Arachidonic acid 1-C^14 (1×10^-4 M unless otherwise indicated, and approximately 300,000 cpm) was added to a suspension of cells (ca 5×10^6) to initiate the reaction. Prior to the addition of above substrate, the test substances were added to the cells at appropriate concentrations and pre-incubated at 37° C. for 5 minutes. In general, stock solutions of test substances were prepared in ethanol (or other appropriate solvents) and diluted with either incubation buffer or water. […] Boiled enzyme blanks and controls containing no test compound were always included. The incubations were terminated by the addition of 0.6 ml of methanol, vortexed and kept on ice for 30 minutes. […] The residue was carefully dissolved in […] of the mobile phase (methanol 75:H2 O 25:acetic acid 0.01) and a 10 microliter aliquot counted to estimate the recoveries. An aliquot of an extract from a control tube was injected into a Waters μBondpack C-18 reverse phase column and the retention times of cycloxygenase and lipoxygenase products determined both by OD measurement at 244 nM and by collecting 1 min. fractions and determining radioactivity. Based on this information, programmed collection of fractions (total of 6) using a fraction collector was made with each of the extracts injected into the column by an autoinjector (WISP) and the fractions counted for radioactivity in a Packard Liquid Scintillation Spectrometer. […]

T2 sequence (P23219 24-599): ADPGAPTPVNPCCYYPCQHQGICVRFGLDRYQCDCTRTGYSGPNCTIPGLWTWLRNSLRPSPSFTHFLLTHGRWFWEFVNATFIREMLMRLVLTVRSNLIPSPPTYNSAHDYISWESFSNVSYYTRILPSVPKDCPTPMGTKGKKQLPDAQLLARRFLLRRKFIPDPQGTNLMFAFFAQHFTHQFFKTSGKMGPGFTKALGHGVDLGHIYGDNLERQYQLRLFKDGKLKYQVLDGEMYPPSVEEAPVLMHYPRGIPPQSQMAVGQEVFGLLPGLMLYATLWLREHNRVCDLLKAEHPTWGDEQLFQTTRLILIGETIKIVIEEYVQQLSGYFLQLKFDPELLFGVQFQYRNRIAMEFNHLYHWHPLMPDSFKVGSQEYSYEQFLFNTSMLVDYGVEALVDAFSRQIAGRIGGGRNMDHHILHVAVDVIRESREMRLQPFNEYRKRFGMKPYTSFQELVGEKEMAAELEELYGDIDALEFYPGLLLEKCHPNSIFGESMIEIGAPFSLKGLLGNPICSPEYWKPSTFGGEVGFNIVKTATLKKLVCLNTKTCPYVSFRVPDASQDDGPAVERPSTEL

Row | Structure (SMILES) | Percent Inhibition Lipoxygenese Act. 5-HETE (Lipoxygenase) [%] | Percent Inhibition Lipoxygenese Act. LTB4 (Lipoxygenase) [%] | Percent Inhibition Cyclooxygenese Act. Total "PGs" (Cyclooxygenase) [%]
1 | CCCCC/C=C\C/C=C\C/C=C\CC=C=CCCC(=O)O [4,5,8Z,11Z,14Z-eicosatetraenoic acid] | 9 | 20 | 9
2 | CCCCCCCCCCC/C=C\CC=C=CCCC(=O)O [4,5,8Z-eicosatrienoic acid] | 42 | 47 | 7
3 | CCCCCCCCCCCSCC=C=CCCC(=O)O [8-thianonadeca-4,5-dienoic acid] | 46 | 37 | 22
